ChEMBL document CHEMBL1201862, “PubChem BioAssay data set” (2004)
Active and inactive are the calls of the source.

Assays:
Cytochrome P450 2D6 = Cytochrome P450 2D6 (Homo sapiens, UniProt P10635);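 further: CYP2D6 member of a cytochrome P450 panel assay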
[1] = target: T1, RNA-binding protein pos-1 (Caenorhabditis elegans, UniProt G5EF15); experiment: disruptors of C. elegans POS-1 RNA interaction – biochemical, fluorescence polarization, dose response (AID 1964);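 further: purified POS-1 fused to maltose binding protein made in E. coli; potency of compounds blocking POS-1 binding to fluorescent RNA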
T1 sequence (G5EF15 whole entry): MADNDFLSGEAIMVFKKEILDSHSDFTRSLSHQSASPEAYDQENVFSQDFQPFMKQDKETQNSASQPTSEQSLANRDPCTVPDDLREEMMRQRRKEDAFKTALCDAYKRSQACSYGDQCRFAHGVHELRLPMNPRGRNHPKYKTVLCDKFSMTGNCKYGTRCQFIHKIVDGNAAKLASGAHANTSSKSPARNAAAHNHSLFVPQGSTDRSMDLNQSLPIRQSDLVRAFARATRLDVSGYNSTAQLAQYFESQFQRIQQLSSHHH

[2] = target: T2, Zinc finger protein mex-5 (Caenorhabditis elegans, UniProt Q9XUB2); experiment: potency of MEX-5 RNA-binding blockers – biochemical, C. elegans, fluorescence polarization, dose response (AID 1960)
T2 sequence (Q9XUB2 whole entry): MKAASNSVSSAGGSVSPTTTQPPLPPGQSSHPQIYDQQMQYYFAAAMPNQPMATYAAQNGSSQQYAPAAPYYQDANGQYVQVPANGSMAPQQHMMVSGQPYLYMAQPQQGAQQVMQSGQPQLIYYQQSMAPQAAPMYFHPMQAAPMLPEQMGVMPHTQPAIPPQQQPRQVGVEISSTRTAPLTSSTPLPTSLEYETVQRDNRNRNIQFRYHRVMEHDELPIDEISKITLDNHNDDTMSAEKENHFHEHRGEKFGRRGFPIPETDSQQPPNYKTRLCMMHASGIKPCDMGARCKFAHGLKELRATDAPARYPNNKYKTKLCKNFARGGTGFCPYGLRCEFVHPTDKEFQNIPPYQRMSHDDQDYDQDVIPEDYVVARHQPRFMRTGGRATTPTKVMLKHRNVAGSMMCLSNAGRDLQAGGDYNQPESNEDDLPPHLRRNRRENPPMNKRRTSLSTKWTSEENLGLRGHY

[3] = target: T3, Rac GTPase-activating protein 1 (Homo sapiens, UniProt Q9H0H5); experiment: blockers of MgcRacGAP-driven Rac1 GTP hydrolysis – biochemical, ADP Hunter fluorescence, primary and confirmatory, confirmation (AID 624330); type: functional
T3 sequence (Q9H0H5 whole entry): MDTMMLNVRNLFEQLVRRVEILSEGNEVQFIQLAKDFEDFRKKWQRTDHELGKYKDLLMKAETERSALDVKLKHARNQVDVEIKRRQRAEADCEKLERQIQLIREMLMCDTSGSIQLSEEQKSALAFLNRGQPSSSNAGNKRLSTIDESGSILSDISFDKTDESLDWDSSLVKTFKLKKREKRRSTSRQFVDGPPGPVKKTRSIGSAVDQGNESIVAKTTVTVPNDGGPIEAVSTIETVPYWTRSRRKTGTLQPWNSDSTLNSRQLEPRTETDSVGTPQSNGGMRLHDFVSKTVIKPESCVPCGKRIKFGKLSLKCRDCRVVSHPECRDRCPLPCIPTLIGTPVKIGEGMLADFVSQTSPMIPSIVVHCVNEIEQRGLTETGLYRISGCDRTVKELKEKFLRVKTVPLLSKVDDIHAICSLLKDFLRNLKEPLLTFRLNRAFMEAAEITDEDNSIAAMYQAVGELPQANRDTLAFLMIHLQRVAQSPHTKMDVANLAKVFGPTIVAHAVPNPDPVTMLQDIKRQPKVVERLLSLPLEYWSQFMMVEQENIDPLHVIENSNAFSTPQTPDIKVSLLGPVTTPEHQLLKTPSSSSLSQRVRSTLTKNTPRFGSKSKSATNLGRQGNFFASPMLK

Cytochrome P450 1A2 = target: T4, Cytochrome P450 1A2 (Homo sapiens, UniProt P05177);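 further: PubChem cytochrome P450 panel assay, CYP1A2 panel member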
T4 sequence (P05177 whole entry): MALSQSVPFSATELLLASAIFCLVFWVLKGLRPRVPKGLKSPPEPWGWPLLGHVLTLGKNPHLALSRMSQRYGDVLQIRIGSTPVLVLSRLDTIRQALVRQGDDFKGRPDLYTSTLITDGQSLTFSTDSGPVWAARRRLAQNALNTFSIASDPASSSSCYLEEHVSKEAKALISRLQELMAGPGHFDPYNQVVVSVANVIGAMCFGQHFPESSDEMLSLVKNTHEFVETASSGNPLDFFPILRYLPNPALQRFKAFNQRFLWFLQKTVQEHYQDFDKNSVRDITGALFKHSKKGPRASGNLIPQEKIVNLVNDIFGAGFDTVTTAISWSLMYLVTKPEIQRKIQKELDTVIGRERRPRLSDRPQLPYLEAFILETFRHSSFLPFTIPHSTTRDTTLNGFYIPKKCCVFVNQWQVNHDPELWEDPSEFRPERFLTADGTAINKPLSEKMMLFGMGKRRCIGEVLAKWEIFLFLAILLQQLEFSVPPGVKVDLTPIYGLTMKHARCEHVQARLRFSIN

[4] = NIH-3T3 fibroblast cytotoxicity, dose response, cytotoxicity control, cell-based, fluorescence, Alamar Blue, secondary assay (AID 2327); type: functional;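 further: NIH-3T3 mouse fibroblasts cultured with fluconazole at 8 µg/mL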
[5] = fluconazole-exposed Candida albicans growth modulators – fluorescence, retest, confirmation (AID 2467); type: functional, cell-based
[6] = Trypanosoma cruzi growth suppression in host cells – NIH3T3 host cells, beta-gal luminescence, confirmation (AID 2044); type: functional, cell-based;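 further: intracellular parasites grown in NIH/3T3 mouse fibroblasts as host cells; luminescent beta-galactosidase reporter signal from transgenic T. cruzi replicating inside host cells; inhibitors lower the luminescence signal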
[7] = NIH3T3 cell viability loss – ATP luminescence, mouse fibroblasts, counter-screen, dose response (AID 2010); type: functional, cell-based;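 further: cells exposed to compound for about 90 hours before reading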
[8] = P. falciparum Dd2 growth inhibitors, dose response, SYBR Green, cherry-picked samples (AID 1159567); type: functional, cell-based
cells = type: functional

Sequence of Cytochrome P450 2D6 (P10635 whole entry, the tested form may be a part): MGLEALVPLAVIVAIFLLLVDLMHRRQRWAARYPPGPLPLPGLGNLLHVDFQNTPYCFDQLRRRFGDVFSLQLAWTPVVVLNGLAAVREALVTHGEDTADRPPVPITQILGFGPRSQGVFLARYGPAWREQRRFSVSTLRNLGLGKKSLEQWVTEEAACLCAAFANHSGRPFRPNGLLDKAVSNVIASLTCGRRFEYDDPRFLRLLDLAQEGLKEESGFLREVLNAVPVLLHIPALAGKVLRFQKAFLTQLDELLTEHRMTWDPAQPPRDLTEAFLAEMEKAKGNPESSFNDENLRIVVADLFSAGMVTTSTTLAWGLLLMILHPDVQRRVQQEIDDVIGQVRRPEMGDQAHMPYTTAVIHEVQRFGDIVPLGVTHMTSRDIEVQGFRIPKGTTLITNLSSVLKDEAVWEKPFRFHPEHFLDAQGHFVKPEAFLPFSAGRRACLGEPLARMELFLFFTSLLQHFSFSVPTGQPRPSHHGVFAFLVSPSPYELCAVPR

CS(=O)(=O)Nc1cccc(-c2ccc3ncnc(Nc4ccccc4)c3c2)c1
AC50 (Cytochrome P450 2D6): 25.1 µM (inconclusive)

CCCCn1c(=O)[nH]c(=O)c2c1nc(-c1ccc(-c3ccccc3Br)o1)n2CCOC
EC50 [1]: > 300 µM (not active)
EC50 [2]: > 300 µM (not active)

COc1ccc(NCC(O)Cn2c(C)c(C)c3ccccc32)cc1 (stereo unspecified)
IC50 [3]: 70.7 µM (active)

N#C/C(=C/c1ccc(N2CCCC2)c([N+](=O)[O-])c1)c1nc2ccccc2[nH]1
AC50 (Cytochrome P450 1A2): 3.55 µM (inconclusive)

CCCCNCC#CCOc1cc(C)ccc1C(C)C
IC50 [3]: 196 µM (active)

Cc1ccc(S(=O)(=O)C(C#N)c2nc3ccccc3nc2N2CCN(C)CC2)cc1C (stereo unspecified)
EC50 [4]: > 150 µM (inactive)
EC50 [5]: > 38 µM (not active)

CCN(CC)c1ccc(NC(=O)c2ccc(S(=O)(=O)N3CCOCC3)cc2)cc1
IC50 [3]: 71.9 µM (active)

CC(=O)Nc1cccc2cc(O)ccc12
IC50 [3]: 36.8 µM (active)

CS(=O)(=O)N1CCC2(CCCN(C(=O)Nc3ccccc3)C2)CC1
AC50 (Cytochrome P450 1A2): 15.8 µM (inconclusive)

O=C1CCC/C1=c1\s/c(=C\c2cccnc2)c(=O)n1-c1ccccc1
EC50 [1]: > 300 µM (not active)
EC50 [2]: 42 µM (active)

COc1cccc(/C=N/NC(=O)c2cc(-c3cccn3C)[nH]n2)c1O
EC50 [4]: 23.5 µM (inconclusive)
EC50 [5]: 2.95 µM (active)

Clc1ccccc1-c1nc(/C=N/N2CCOCC2)c2ccccn12
IC50 [3]: 33.6 µM (active)

Cc1nc(Cl)cc(N/N=C/c2ccc(O)cc2O)n1
IC50 [3]: 16.6 µM (active)

Clc1cccc(N/N=C/c2ccc(N3CCOCC3)cc2)c1
EC50 [6]: 2.74 µM (active)
EC50 [7]: > 60 µM (not active)
AC50 (Cytochrome P450 2D6): 7.08 µM (inconclusive)

COc1ccc2c3c(n(C)c2c1)[C@H](CO)N(C(=O)c1ccccc1)CC31CCN(C(=O)c2ccccc2)CC1
AC50 [8]: 7.29 µM (active)

O=C(C[C@@H]1C[C@H]2c3cc(NC(=O)Nc4ccccc4)ccc3O[C@H]2[C@H](CO)O1)NCc1ccccc1
AC50 [8]: 15.9 µM (active)

COc1ccc(S(=O)(=O)N2CC[C@@H]3[C@H]2c2cc(-c4ccc(C#N)cc4)ccc2N[C@@H]3CO)cc1
AC50 [8]: 9.46 µM (active)

CCCc1cn([C@H]2C[C@@H]3O[C@H](CO)CC[C@@H]3O[C@@H]2CCc2ccc(-c3ccc(OC)cc3)cc2)nn1
AC50 [8]: 4.34 µM (active)

Cc1cccc(S(=O)(=O)N2CCCCN3[C@H](C2)[C@@H](c2ccc(-c4cccnc4)cc2)[C@@H]3CO)c1
AC50 [8]: 4.88 µM (active)

COc1cccc(NC(=O)c2cc3ccccc3oc2=O)c1
IC50 (cells): 34.4 µM (active)
